Assay results published in patent US7829589B2, “Sulfonamide compounds and uses thereof” (Elixir Pharmaceuticals, Inc., priority 2005, dated 2010).
“Also recorded” adds a separate entry of the source. Each block holds one compound with its values, some of them ahead of it. Ends that are not written are not given here.

Key:
[1] = target: GHS-R (Homo sapiens, UniProt Q92847); test: GHS-R antagonist activity (Ki) in a cell based assay
Procedure, shortened: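 Transfected COS-7 cells were labelled 24 h with [^3H]-myo-inositol and preincubated 30 min at 37 °C in HEPES buffer pH 7.4 with 10 mM LiCl, optionally with 1 U/ml adenosine deaminase. Compound was applied for 45 min at 37 °C. [^3H]-inositol phosphates were extracted with perchloric acid and isolated by anion-exchange resin.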

[2] = system: C57bl/6 mice; test: Ghrelin-induced food intake in mice dosed ip; format: in vivo; details: 1, 3, 10, 30 mpk ip after ghrelin ip; food intake at 1, 2, 4, 6 hours; relative to vehicle
Protocol: Ad libidum low fat chow-fed male C57bl/6 mice were acclimated to individual housing for >5 days prior to the experiment. On the morning of the experiment food was removed from the cages and animals were then dosed ip (n=8/group) with either vehicle or ghrelin followed one minute later by a second ip injection containing either vehicle or one of several doses of compound (1, 3, 10, 30mpk ip). Immediately after the second dosing food was returned to the cages and food intake was measured 1, 2, 4 and 6 hours later.

[3] = Preliminary PK studies (IV/PO), oral bioavailability and brain/plasma ratio; format: in vivo; details: mouse, male diet-induced obese C57bl/6 mice; for Kp: brain and plasma, brain AUC vs plasma AUC; for bioavailability: oral bioavailability, plasma AUC PO vs IV
Protocol: Male, diet-induced obese, ad libidum fed, C57bl/6 mice were used for these preliminary PK studies. They were dosed (n=3 mice per data point) either IV or PO. Mice ere sacrificed and the blood/brains collected at the following times: IV samples were taken at 5, 15, 30, 60, 120, 240, 480 minutes after dosing; PO samples were taken at 15, 30, 60, 120, 240, 480 minutes after dosing. Plasma and brain samples were evaluated for the presence of compound. Oral bioavailability (% F) was determined by comparing the plasma AUCIV and AUCPO. The brain/plasma ratio was determined by comparing the brain AUC and plasma AUC values.

[4] = system: C57bl/6 mice; test: 28 days oral dosing in diet-induced obese mice: body weight and food intake; format: in vivo; details: bid po up to 28 days
Description: (§1) Group housed, male, C57bl/6 mice received high fat diet and water ad lib to establish diet-induced obesity, and for the duration of the experiment. After acclimating to individual housing for at least 5 days, mice were then acclimated to bid oral gavage with vehicle for 7 days. Once acclimated, mice were culled into equal groups (n>10/group) according to body weight and compound dosing began. Mice received either vehicle or compound (bid, po) for periods up to 28 days, during which body weight and food intake were measured daily. Representative cohorts (based on BW) for each group were removed at 7, 14, 21 or 28 days for glucose tolerance tests and tissue analysis.

[5] = system: mice (DIO); test: Glucose tolerance test (GTT), insulin sensitivity in DIO mice; format: in vivo
Description: as §1
On the night prior to the GTT, mice (DIO) within each dose group (n=8/group) had their body weight measured and were then fasted overnight for 16 hours prior to the GTT. On the morning of the GTT a 40 µL blood sample was removed from the tail for baseline fasted blood glucose and plasma insulin measurements. Mice then received their normal dose of compound. One hour later mice were dosed with glucose ([…], either IP or PO) and further tail bleeds (40 µL) were taken at 15, 30, 60 and 120 minutes after the glucose dose for blood glucose and plasma insulin measurements. Mice were sacrificed following the final sample time. Baseline fasted blood glucose levels are provided in FIG. 4a for compound 57 and in FIG. 4d for compound 94.

[6] = system: mice; test: Plasma HbA1c and lipid profile after 28 day dosing; format: in vivo; details: at 28 days; for cholesterol levels / plasma HbA1c levels: versus vehicle
Description: as §1
Mice are sacrificed by CO2 asphyxiation and terminal blood samples were collected via cardiac puncture. For HbA1c, whole blood is analyzed using a DCA2000+ glycated hemoglobin analyzer (Bayer Healthcare, Indianapolis, Ind.). Triglycerides, total cholesterol, and HDL-cholesterol were all measured using a Cholestech LDX lipid profile analyzer (Cholestech, Hayward, Calif.). As shown in FIG. 6 and FIG. 7, both plasma HbA1c and cholesterol levels were improved at 28 days in animals treated with compound 57 and compound 94 versus animals treated with vehicle alone.

[7] = system: mice; test: Fast refeed assay; format: in vivo
Protocol: Food is removed at 6 pm for an overnight (˜16 hour) fast. Beginning at 10 am on the next morning, mice are administered with either vehicle (e.g., saline+acetic acid, pH=5) or the compound of interest. Mice are then returned to their home cages and pre-weighed food (approximately 90 grams) is immediately returned to the food hoppers in each cage. The weight of the food remaining in the food hoppers is measured at 30 minutes, 1 hour, 2 hours, and 4 hours post compound/vehicle administration. Final body weights are then recorded for the mice.

[8] = FIGS. 4a-4f, 7 to 28 days oral dosing

GHS-R, sequence (Q92847 whole entry, species assumed): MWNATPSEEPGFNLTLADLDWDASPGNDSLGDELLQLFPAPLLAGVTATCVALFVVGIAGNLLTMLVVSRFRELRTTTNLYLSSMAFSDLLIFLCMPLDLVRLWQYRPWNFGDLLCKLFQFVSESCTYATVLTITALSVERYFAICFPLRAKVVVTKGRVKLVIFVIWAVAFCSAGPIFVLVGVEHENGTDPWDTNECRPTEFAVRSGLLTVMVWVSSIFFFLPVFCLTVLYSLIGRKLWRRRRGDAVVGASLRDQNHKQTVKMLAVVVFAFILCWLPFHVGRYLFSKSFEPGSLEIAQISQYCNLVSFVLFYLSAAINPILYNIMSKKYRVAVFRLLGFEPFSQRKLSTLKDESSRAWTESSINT

Ki [1]: < 100 nM | Kp [3]: 0.139 | bioavailability [3]: 10.2%
Compound: CCN(CC)CCCS(=O)(=O)N[C@H](CCc1ccccc1)c1nc(Cc2ccc(Br)cc2)no1 [Compound 57, 3-Diethylamino-propane-1-sulfonic acid {(R)-1-[3-(4-bromo-benzyl)-[1,2,4]oxadiazol-5-yl]-3-phenyl-propyl}-amide]
ghrelin-induced food intake [2]: block ghrelin-induced food intake; also recorded: reduced food intake | body weight [4]: decreased body weight; also recorded: decrease in body weight | food intake [4]: No apparent effect on food intake | insulin sensitivity [5, 8]: improvement in insulin sensitivity | insulin sensitivity ([5]; GTT at 7 days of oral dosing): improved insulin sensitivity | insulin sensitivity ([5]; GTT at 21 days of oral dosing): improved insulin sensitivity | cholesterol levels [6]: improved cholesterol levels | plasma HbA1c levels [6]: improved plasma HbA1c levels

Compound: CCN(CC)CCCS(=O)(=O)N[C@H](CCc1ccccc1)c1nc(-c2ccc(OC)cc2)n[nH]1 [Compound 94, 3-Diethylamino-propane-1-sulfonic acid {(R)-1-[5-(4-methoxy-phenyl)-2H-[1,2,4]triazol-3-yl]-3-phenyl-propyl}-amide]
Ki [1]: < 100 nM | ghrelin-induced food intake [2]: block ghrelin-induced food intake; also recorded: reduced food intake | Kp [3]: 0.087 | bioavailability [3]: 63.2% | body weight [4]: decreased body weight; also recorded: decrease in body weight | food intake [4]: No apparent effect on food intake | insulin sensitivity [5, 8]: improvement in insulin sensitivity | insulin sensitivity ([5]; GTT at 7 days of oral dosing): improved insulin sensitivity | insulin sensitivity ([5]; GTT at 28 days of oral dosing): improved insulin sensitivity | triglyceride levels [6]: improved triglyceride levels | cholesterol levels [6]: improved cholesterol levels | plasma HbA1c levels [6]: improved plasma HbA1c levels

Ki [1]: 100 to 500 nM
Compound: CCN(CC)CCCS(=O)(=O)N[C@H](C)c1nc(Cc2ccc(Br)cc2)no1 [Compound 147, (R)-3-Diethylamino-propane-1-sulfonic acid {1-[3-(4-bromo-benzyl)-[1,2,4]oxadiazol-5-yl]-ethyl}-amide]

Ki [1]: 500 to 1000 nM
Compound: CCN(CC)CCCS(=O)(=O)NCc1nc(-c2ccc(OC)cc2)no1 [Compound 148, 3-Diethylamino-propane-1-sulfonic acid [3-(4-methoxy-phenyl)-[1,2,4]oxadiazol-5-ylmethyl]-amide]

Ki [1]: < 100 nM
Compound: CCN(CC)CCCS(=O)(=O)N1CC[C@H]1c1nc(Cc2ccc(Br)cc2)no1 [Compound 149, (S)-(3-{2-[3-(4-Bromo-benzyl)-[1,2,4]oxadiazol-5-yl]-azetidine-1-sulfonyl}-propyl)-diethyl-amine]

Ki [1]: 100 to 500 nM
Compound: CCN(CC)CCCS(=O)(=O)N[C@@H](C)c1nc(-c2ccc(OC)cc2)no1 [Compound 150, (S)-3-Diethylamino-propane-1-sulfonic acid {1-[3-(4-methoxy-phenyl)-[1,2,4]oxadiazol-5-yl]-ethyl}-amide]

Ki [1]: 100 to 500 nM
Compound: CCN(CC)CCCS(=O)(=O)NCc1nc(Cc2ccc(Br)cc2)no1 [Compound 151, 3-Diethylamino-propane-1-sulfonic acid [3-(4-bromo-benzyl)-[1,2,4]oxadiazol-5-ylmethyl]-amide]

Ki [1]: 100 to 500 nM
Compound: CCN(CC)CCCS(=O)(=O)N[C@H](C)c1nc(-c2ccc(OC)cc2)no1 [Compound 152, (R)-3-Diethylamino-propane-1-sulfonic acid {1-[3-(4-methoxy-phenyl)-[1,2,4]oxadiazol-5-yl]-ethyl}-amide]

Ki [1]: < 100 nM
Compound: CCN(CC)CCCS(=O)(=O)N1CC[C@H]1c1nc(-c2ccc(OC)cc2)no1 [Compound 153, (S)-Diethyl-(3-{2-[3-(4-methoxy-phenyl)-[1,2,4]oxadiazol-5-yl]-azetidine-1-sulfonyl}-propyl)-amine]

Ki [1]: < 100 nM
Compound: CCN(CC)CCCS(=O)(=O)NC(C)(C)c1nc(Cc2ccc(Br)cc2)no1 [Compound 154, 3-Diethylamino-propane-1-sulfonic acid {1-[3-(4-bromo-benzyl)-[1,2,4]oxadiazol-5-yl]-1-methyl-ethyl}-amide]

Ki [1]: 100 to 500 nM
Compound: CCN(CC)CCCS(=O)(=O)NC(C)(C)c1nc(-c2ccc(OC)cc2)no1 [Compound 155, 3-Diethylamino-propane-1-sulfonic acid {1-[3-(4-methoxy-phenyl)-[1,2,4]oxadiazol-5-yl]-1-methyl-ethyl}-amide]

Ki [1]: 100 to 500 nM
Compound: CCN(CC)CCCS(=O)(=O)NCc1nc(-c2ccc(OC)cc2)n[nH]1 [Compound 156, 3-Diethylamino-propane-1-sulfonic acid [5-(4-methoxy-phenyl)-2H-[1,2,4]triazol-3-ylmethyl]-amide]

Ki [1]: 100 to 500 nM
Compound: CCN(CC)CCCS(=O)(=O)NCc1nc(Cc2ccc(Cl)cc2)n[nH]1 [Compound 157, 3-Diethylamino-propane-1-sulfonic acid [5-(4-chloro-benzyl)-2H-[1,2,4]triazol-3-ylmethyl]-amide]

Ki [1]: 100 to 500 nM
Compound: CCN(CC)CCCS(=O)(=O)N[C@@H](CC(C)C)c1nc(-c2ccc(OC)cc2)n[nH]1 [Compound 159, (S)-3-Diethylamino-propane-1-sulfonic acid {1-[5-(4-methoxy-phenyl)-2H-[1,2,4]triazol-3-yl]-3-methyl-butyl}-amide]

Ki [1]: 100 to 500 nM
Compound: CCN(CC)CCCS(=O)(=O)N[C@H](CC(C)C)c1nc(-c2ccc(OC)cc2)n[nH]1 [Compound 160, (R)-3-Diethylamino-propane-1-sulfonic acid {1-[5-(4-methoxy-phenyl)-2H-[1,2,4]triazol-3-yl]-3-methyl-butyl}-amide]

Compound: substance P (RPKPQQFFGLM-NH2; ends and bridges not checked; UniProt P20366 58-68, looked up)
feeding activity [7]: alters feeding activity
